Data published in patent US6737383B1, “Herbicidal oxadiazolidines” (priority 1999, dated 2004).

Columns and labels:
[1] = system: bermuda-grass; assay: Test D bermudagrass; format: in vivo, Cynodon dactylon; settings: Preemergence, 0 to 100 scale
In short: (§1)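 Each weed species is planted in its own pot or compartment; preemergence doses go on the sandy loam surface within a day. The formulation is a surfactant-containing, non-phytotoxic solvent blend. Ratings come from visual comparison with untreated controls 14 to 21 days later, where 100 means complete control.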

[2] = system: common pursiane; assay: Test D common purslane; format: in vivo, Portulaca oleracea
In short: as §1

[3] = system: common ragweed; assay: Test D common ragweed; format: in vivo, Ambrosia elatior; settings: Preemergence, 0 to 100 scale
In short: as §1

[4] = system: common groundsel; assay: Test D common groundsel; format: in vivo, Senecio vulgaris; settings: Preemergence, 0 to 100 scale
In short: as §1

[5] = system: dallisgrass; assay: Test D dallisgrass; format: in vivo, Paspalum dilatatum; settings: Preemergence, 0 to 100 scale
In short: as §1

[6] = system: goosegrass; assay: Test D goosegrass; format: in vivo, Eleusine indica; settings: Preemergence, 0 to 100 scale
In short: as §1

[7] = system: guineagrass; assay: Test D guineagrass; format: in vivo, Panicum maximum; settings: Preemergence, 0 to 100 scale
In short: as §1

[8] = system: itchgrass; assay: Test D itchgrass; format: in vivo, Rottboellia exaltata; settings: Preemergence, 0 to 100 scale
In short: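 Scoring used a 0–100 visual injury scale, with 0 meaning no effect and 100 complete control, assessed 14–21 days after application alongside untreated pots. Preemergence treatments went onto sandy loam surfaces of separately potted seeds within a day of sowing.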

[9] = system: large crabgrass; assay: Test D large crabgrass; format: in vivo, Digitaria sanguinalis; settings: Preemergence, 0 to 100 scale
In short: as §1

[10] = system: pitted morningglory; assay: Test D pitted morningglory; format: in vivo, Ipomoea lacunosa; settings: Preemergence, 0 to 100 scale
In short: as §1

[11] = system: purple nutsedge; assay: Test D purple nutsedge; format: in vivo, Cyperus rotundus; settings: Preemergence, 0 to 100 scale
In short: as §1

[12] = system: sandbur; assay: Test D sandbur; format: in vivo, Cenchrus echinatus; settings: Preemergence, 0 to 100 scale
In short: as §1

[13] = system: Spanishneedles; assay: Test D Spanishneedles; format: in vivo, Bidens bipinnata; settings: Preemergence, 0 to 100 scale
In short: as §1

[14] = system: Green foxtail; assay: Test D green foxtail; format: in vivo; settings: Preemergence, 0 to 100 scale
In short: as §1

[15] = system: Green foxtail; assay: Test D green foxtail; format: in vivo
In short: as §1

[16] = Rate 16 g/ha, 0 no injury, 100 complete control
[17] = Rate 32 g/ha, 0 no injury, 100 complete control
[18] = Rate 64 g/ha, 0 no injury, 100 complete control
[19] = Rate 125 g/ha, 0 no injury, 100 complete control
[20] = Rate 16 g/ha; Preemergence; 0 to 100 scale, 0 no injury, 100 complete control
[21] = Rate 32 g/ha; Preemergence; 0 to 100 scale, 0 no injury, 100 complete control
[22] = Rate 64 g/ha, Preemergence; 0 to 100 scale, 0 no injury, 100 complete control
[23] = Rate 125 g/ha, Preemergence; 0 to 100 scale, 0 no injury, 100 complete control
[24] = Rate 250 g/ha; Preemergence; 0 to 100 scale
[25] = Rate 500 g/ha, Preemergence; 0 to 100 scale
[26] = Rate 500 g/ha; Preemergence; 0 to 100 scale
[27] = Preemergence; Rate 16 g/ha; 0 to 100 scale, 0 no injury, 100 complete control
[28] = Preemergence; Rate 32 g/ha; 0 to 100 scale, 0 no injury, 100 complete control

SMILES: CC(C)N(C(=O)n1oc(=O)n(C(C)C)c1=O)c1ccc(F)cc1 [Compound 131]
- Plant response rating, Bermudagrass [1, 16]: 100
- Plant response rating, Bermudagrass [1, 17]: 100
- Plant response rating, Bermudagrass [1, 18]: 100
- Plant response rating, Bermudagrass [1, 19]: 100
- Plant response rating, Bermudagrass ([1]; Rate 250 g/ha): 100
- Plant response rating, Bermudagrass ([1]; Rate 500 g/ha): 100
- Plant response rating, C. purslane [2, 20]: 0
- Plant response rating, C. purslane [2, 21]: 0
- Plant response rating, C. purslane [2, 22]: 0
- Plant response rating, C. purslane [2, 23]: 0
- Plant response rating, C. purslane [2, 24]: 10
- Plant response rating, C. purslane [2, 25]: 100
- Plant response rating, C. purslane [2, 26]: 10
- Plant response rating, C. ragweed [3, 16]: 0
- Plant response rating, C. ragweed [3, 17]: 0
- Plant response rating, C. ragweed [3, 18]: 30
- Plant response rating, C. ragweed [3, 19]: 30
- Plant response rating, C. ragweed ([3]; Rate 250 g/ha): 100
- Plant response rating, C. ragweed ([3]; Rate 500 g/ha): 100
- Plant response rating, Com. groundsel [4, 16]: 75
- Plant response rating, Com. groundsel [4, 17]: 75
- Plant response rating, Com. groundsel [4, 18]: 85
- Plant response rating, Com. groundsel [4, 19]: 100
- Plant response rating, Com. groundsel ([4]; Rate 250 g/ha): 100
- Plant response rating, Com. groundsel ([4]; Rate 500 g/ha): 100
- Plant response rating, Dallisgrass [5, 16]: 85
- Plant response rating, Dallisgrass [5, 17]: 95
- Plant response rating, Dallisgrass [5, 18]: 100
- Plant response rating, Dallisgrass [5, 19]: 100
- Plant response rating, Dallisgrass ([5]; Rate 250 g/ha): 100
- Plant response rating, Dallisgrass ([5]; Rate 500 g/ha): 100
- Plant response rating, Goosegrass [6, 16]: 75
- Plant response rating, Goosegrass [6, 17]: 98
- Plant response rating, Goosegrass [6, 18]: 100
- Plant response rating, Goosegrass [6, 19]: 100
- Plant response rating, Goosegrass ([6]; Rate 250 g/ha): 100
- Plant response rating, Goosegrass ([6]; Rate 500 g/ha): 100
- Plant response rating, Guineagrass [7, 16]: 0
- Plant response rating, Guineagrass [7, 17]: 100
- Plant response rating, Guineagrass [7, 18]: 100
- Plant response rating, Guineagrass [7, 19]: 100
- Plant response rating, Guineagrass ([7]; Rate 250 g/ha): 100
- Plant response rating, Guineagrass ([7]; Rate 500 g/ha): 100
- Plant response rating, Itchgrass [8, 16]: 30
- Plant response rating, Itchgrass [8, 17]: 50
- Plant response rating, Itchgrass [8, 18]: 90
- Plant response rating, Itchgrass [8, 19]: 90
- Plant response rating, Itchgrass ([8]; Rate 250 g/ha): 100
- Plant response rating, Itchgrass ([8]; Rate 500 g/ha): 100
- Plant response rating Large crabgrass [9, 16]: 100
- Plant response rating Large crabgrass [9, 17]: 100
- Plant response rating Large crabgrass [9, 18]: 100
- Plant response rating Large crabgrass [9, 19]: 100
- Plant response rating Large crabgrass ([9]; Rate 250 g/ha): 100
- Plant response rating Large crabgrass ([9]; Rate 500 g/ha): 100
- Plant response rating, P. morninglory [10, 16]: 0
- Plant response rating, P. morninglory [10, 17]: 0
- Plant response rating, P. morninglory [10, 18]: 0
- Plant response rating, P. morninglory [10, 19]: 50
- Plant response rating, P. morninglory ([10]; Rate 250 g/ha): 85
- Plant response rating, P. morninglory ([10]; Rate 500 g/ha): 100
- Plant response rating, Purple nutsedge [11, 16]: 0
- Plant response rating, Purple nutsedge [11, 17]: 0
- Purple nutsedge plant response rating [11, 18]: 40
- Purple nutsedge plant response rating [11, 19]: 60
- Plant response rating, Purple nutsedge ([11]; Rate 250 g/ha): 85
- Plant response rating, Purple nutsedge ([11]; Rate 500 g/ha): 85
- Plant response rating, Sandbur [12, 16]: 0
- Plant response rating, Sandbur [12, 17]: 60
- Sandbur plant response rating [12, 18]: 85
- Sandbur plant response rating [12, 19]: 100
- Plant response rating, Sandbur ([12]; Rate 250 g/ha): 100
- Plant response rating, Sandbur ([12]; Rate 500 g/ha): 100
- Plant response rating, Spanishneedles [13, 16]: 0
- Plant response rating, Spanishneedles [13, 17]: 0
- Spanishneedles plant response rating [13, 18]: 40
- Spanishneedles plant response rating [13, 19]: 60
- Plant response rating, Spanishneedles ([13]; Rate 500 g/ha): 90
- Plant response rating, Green foxtail ([14]; Rate 250 g/ha): 100
- Plant response rating, Green foxtail ([14]; Rate 500 g/ha): 100
- Plant response rating, Green foxtail [15, 27]: 90
- Plant response rating, Green foxtail [15, 28]: 100
- Plant response rating, Green foxtail [15, 20]: 90
- Green foxtail plant response rating [15, 22]: 100
- Plant response rating, Green foxtail [15, 22]: 100
- Green foxtail plant response rating [15, 23]: 100
- Plant response rating, Green foxtail [15, 23]: 100
- Plant response rating, Green foxtail [15, 24]: 100
- Plant response rating, Green foxtail [15, 25]: 100

SMILES: C=CCn1c(=O)on(C(=O)N(c2ccc(F)cc2F)C(C)C)c1=O [Compound 151]
- Plant response rating, Bermudagrass [1, 16]: 90
- Plant response rating, Bermudagrass [1, 17]: 90
- Plant response rating, Bermudagrass [1, 18]: 90
- Plant response rating, Bermudagrass [1, 19]: 100
- Plant response rating, Bermudagrass ([1]; Rate 250 g/ha): 100
- Plant response rating, Bermudagrass ([1]; Rate 500 g/ha): 100
- Plant response rating, C. purslane [2, 20]: 0
- Plant response rating, C. purslane [2, 21]: 0
- Plant response rating, C. purslane [2, 22]: 0
- Plant response rating, C. purslane [2, 23]: 0
- Plant response rating, C. purslane [2, 24]: 0
- Plant response rating, C. purslane [2, 26]: 0
- Plant response rating, C. ragweed [3, 16]: 0
- Plant response rating, C. ragweed [3, 17]: 0
- Plant response rating, C. ragweed [3, 18]: 0
- Plant response rating, C. ragweed [3, 19]: 0
- Plant response rating, C. ragweed ([3]; Rate 250 g/ha): 20
- Plant response rating, C. ragweed ([3]; Rate 500 g/ha): 20
- Plant response rating, Com. groundsel [4, 16]: 0
- Plant response rating, Com. groundsel [4, 17]: 0
- Plant response rating, Com. groundsel [4, 18]: 0
- Plant response rating, Com. groundsel [4, 19]: 100
- Plant response rating, Com. groundsel ([4]; Rate 250 g/ha): 100
- Plant response rating, Com. groundsel ([4]; Rate 500 g/ha): 100
- Plant response rating, Dallisgrass [5, 16]: 100
- Plant response rating, Dallisgrass [5, 17]: 85
- Plant response rating, Dallisgrass [5, 18]: 100
- Plant response rating, Dallisgrass [5, 19]: 100
- Plant response rating, Dallisgrass ([5]; Rate 250 g/ha): 100
- Plant response rating, Dallisgrass ([5]; Rate 500 g/ha): 100
- Plant response rating, Goosegrass [6, 16]: 85
- Plant response rating, Goosegrass [6, 17]: 85
- Plant response rating, Goosegrass [6, 18]: 100
- Plant response rating, Goosegrass [6, 19]: 100
- Plant response rating, Goosegrass ([6]; Rate 250 g/ha): 100
- Plant response rating, Goosegrass ([6]; Rate 500 g/ha): 100
- Plant response rating, Guineagrass [7, 16]: 85
- Plant response rating, Guineagrass [7, 17]: 90
- Plant response rating, Guineagrass [7, 18]: 100
- Plant response rating, Guineagrass [7, 19]: 100
- Plant response rating, Guineagrass ([7]; Rate 250 g/ha): 100
- Plant response rating, Guineagrass ([7]; Rate 500 g/ha): 100
- Plant response rating, Itchgrass [8, 16]: 0
- Plant response rating, Itchgrass [8, 17]: 0
- Plant response rating, Itchgrass [8, 18]: 75
- Plant response rating, Itchgrass [8, 19]: 85
- Plant response rating, Itchgrass ([8]; Rate 250 g/ha): 100
- Plant response rating, Itchgrass ([8]; Rate 500 g/ha): 100
- Plant response rating Large crabgrass [9, 16]: 98
- Plant response rating Large crabgrass [9, 17]: 98
- Plant response rating Large crabgrass [9, 18]: 100
- Plant response rating Large crabgrass [9, 19]: 100
- Plant response rating Large crabgrass ([9]; Rate 250 g/ha): 100
- Plant response rating Large crabgrass ([9]; Rate 500 g/ha): 100
- Plant response rating, P. morninglory [10, 16]: 0
- Plant response rating, P. morninglory [10, 17]: 0
- Plant response rating, P. morninglory [10, 18]: 0
- Plant response rating, P. morninglory [10, 19]: 0
- Plant response rating, P. morninglory ([10]; Rate 250 g/ha): 0
- Plant response rating, P. morninglory ([10]; Rate 500 g/ha): 20
- Plant response rating, Purple nutsedge [11, 16]: 0
- Plant response rating, Purple nutsedge [11, 17]: 0
- Purple nutsedge plant response rating [11, 18]: 0
- Purple nutsedge plant response rating [11, 19]: 30
- Plant response rating, Purple nutsedge ([11]; Rate 250 g/ha): 65
- Plant response rating, Purple nutsedge ([11]; Rate 500 g/ha): 70
- Plant response rating, Sandbur [12, 16]: 0
- Plant response rating, Sandbur [12, 17]: 20
- Sandbur plant response rating [12, 18]: 90
- Sandbur plant response rating [12, 19]: 100
- Plant response rating, Sandbur ([12]; Rate 250 g/ha): 100
- Plant response rating, Sandbur ([12]; Rate 500 g/ha): 100
- Plant response rating, Spanishneedles [13, 16]: 0
- Plant response rating, Spanishneedles [13, 17]: 0
- Spanishneedles plant response rating [13, 18]: 0
- Spanishneedles plant response rating [13, 19]: 0
- Plant response rating, Spanishneedles ([13]; Rate 250 g/ha): 0
- Plant response rating, Spanishneedles ([13]; Rate 500 g/ha): 40
- Plant response rating, Green foxtail ([14]; Rate 250 g/ha): 100
- Plant response rating, Green foxtail ([14]; Rate 500 g/ha): 100
- Plant response rating, Green foxtail [15, 27]: 100
- Plant response rating, Green foxtail [15, 28]: 100
- Plant response rating, Green foxtail [15, 20]: 100
- Plant response rating, Green foxtail [15, 21]: 75
- Green foxtail plant response rating [15, 22]: 100
- Plant response rating, Green foxtail [15, 22]: 100
- Green foxtail plant response rating [15, 23]: 100
- Plant response rating, Green foxtail [15, 23]: 100
- Plant response rating, Green foxtail [15, 24]: 100
- Plant response rating, Green foxtail [15, 25]: 100
